What was measured:
ACHN cells [1] = assay: High content imaging screen of 116 small molecule inhibitors for p62 and pS6; assay type: cell-based, human; conditions: HCI screen, 72 hr
Description: We used a metastatic human RCC cell line, ACHN. Small molecule inhibitors have been extensively used in RCC over the last decade. […] Importantly, p62 is an autophagy substrate that is degraded along with its cargo, and so is expected to decrease with induction of autophagy. Therefore, we monitored p62 steady-state levels as an initial screen of autophagy flux. Next, we combined the measurement of the p62 with a measurement of mTORC1 activity an independent readout to evaluate autophagy. mTORC1 plays the central role in the anabolic process by increasing protein content through ribosomal biogenesis and elongation of protein translation. Specifically, mTORC1 induces mRNA translation by inducing the activation of p70S6 kinase and the subsequent phosphorylation of the S6 ribosomal protein. To ensure increased cellular biomass, mTORC1 downregulates autophagy. We chose the phosphorylation status of the downstream target of mTORC1 signaling, ribosomal S6 (hereafter S6) as a readout for mTORC1 activity.
To provide a straightforward method for detecting the induction of autophagy, we monitored ACHN cells for small molecule inhibitors which decreased the antibody labelled levels of p62 protein and pS6 phosphorylation (see methods below for detailed experiment procedure). To that end, automated high content imaging (HCl) microscopy was used to detect induction of autophagy as documented by the […] by p62 protein expression and mTORC1 inhibition by the decrease in S6 phosphorylation. The HCl assay was optimized for 384-well plate screening. Drug screening plates were designed and created as previously described.
A 7-point dilution series of 116 small molecule inhibitors covering a 1000× concentration range were plated into three, 384-well plates using the EP Motion automated dispensing system. Control wells with equal volumes of DMSO were included as negative controls. ACHN cells were grown, trypsinized counted, and plated directly into warm drug plates using Multidrop combi dispenser. Plates were incubated for 72 hr and subsequently imaged on the Olympus ScanR Platform at 10× magnification performing 4 images per well in 384 well plates. Single-cell nuclear and cytoplasmic fluorescent intensities were calculated using the Olympus ScanR Analysis Software: the DAPI-positive region of each cell was used as a boundary to quantitate nuclei counts for analysis of cell growth and integrated nuclear DNA staining intensity was used for cell cycle analysis. A 10-pixel extension of the nuclear region (and not including the nuclear region) was used to quantitate cytoplasmic signal of immunofluorescent staining of p62 protein and phosphorylation of S6. Mean signal intensity of each marker in all cells per well was used as the metric for cytoplasmic marker expression (average intensity of pS6 and p62). Unsupervised hierarchical clustering was used to identify compounds that produced similar pS6 and p62 dose response phenotypes after treatment.

[2] = tested on: patient-derived RCC organotypic cultures; assay: Patient tumor ex vivo organotypic culture; assay type: cell-based, human; conditions: 24 hours
Procedure: Tumor tissue samples were collected at the time of surgical removal for consented patients and transported in IMEM+FBS+PS. Tissue was sliced into thin sections using a surgical knife. Sections were cultured on an organotypic insert (EMD#PICMORG50) for 24 hours in IMEM+10% FBS+1% PS+50 ug/ml holo-transferrin with drug. A section of each tumor was immediately fixed in 10% buffered formalin to confirm tissue viability. After culture, treated tissue sections were fixed in 10% buffered formalin and embedded in paraffin. Paraffin embedded tumors were evaluated for morphology (H&E) and immunofluorescent signaling.
H&E slides of formalin fixed, paraffin embedded tissue was used to assess morphological integrity of tumor samples. Once integrity was confirmed, immunofluorescent analysis was performed for p-S6 (1:500 CST), p-AKT (1:200 CST) and LC3B (1:250 CST). Four micron sections were cut, de-paraffinized and rehydrated. Antigen retrieval was performed using citrate for 4 min in a pressure cooker. Slides were blocked using 2.5% normal goat serum for 30 min then incubated in primary antibody for 1 hr followed by secondary antibody mouse anti-rabbit alexa 488 (1:1000) for 30 min. Slides were rinsed in PBS, air dried, and coverslipped using Dako mounting media with Dapi.

ACHN cells [3] = assay: Apoptosis (Caspase 3/7-Glo), ACHN; assay type: cell-based, human; conditions: ACHN, 72 h
Procedure: Apoptosis was determined using Caspase 3/7-Glo assay kit (Promega) following the manufacturer's instructions. Briefly, 2000 cells per well were plated in 96 well plates and cultured for 72 h. […] Caspase 3/7 activity was measured using a luminometer. Luminescence values were normalized by cell numbers.

ACHN cells [4] = assay: Redox homeostasis (p-AMPK, NADPH, GSSG/GSH, ROS); assay type: cell-based, human; conditions: 2 μM CYT387, 10 μM MK2206, 24 hr
Procedure: ROS levels were measured with Cellrox Deep Red (Molecular Probes). Cell were plated in a 96 well clear bottom with black sides cell culture plate. […] The complete media+drug was removed after 24 hours and replaced with 5 μM of Cellrox Deep Red in media. Cells were incubated for 30 min at 370 C then washed with PBS. Fluorescence signal was detected using a Bioteck Cytation 5 plate reader. Data was analyzed using Prism software.

ACHN cells [5] = assay: Lipid droplet staining (Bodipy 493/503), ACHN; assay type: cell-based, human; conditions: 24 hrs; p<0.001 vs control
Procedure: (§1) Cells were grown on coverslips then treated with drug for 24 hours. Cells were fixed in 4% paraformaldehyde for 15 min, rinsed with PBS. Cells were washed with a 1% saponin solution for 15 min at room temperature then washed several times in PBS to remove detergent. Cells were then incubated in Bodipy (ThermoFisher #D3922) at a final concentration of 1 uM for 10 min. Bodipy was removed and slides were rinsed with PBS then air dried and mounted on slides using Dako mounting media with Dapi.

[6] = tested on: Atg5−/− murine embryonic fibroblasts; assay: Lipid droplet number in Atg5−/− MEFs; assay type: cell-based, mouse; conditions: ATG5 deficient, 24 hr
Procedure: as §1

How did the S6 phosphorylation (ACHN cells [1]) turn out when `N#CCNC(=O)c1ccc(-c2ccnc(Nc3ccc(N4CCOCC4)cc3)n2)cc1` [CYT387] was run?
The S6 phosphorylation was “potently inhibited S6 phosphorylation”.

What about the “induction of autophagy / autophagic flux” value (ACHN cells [1]) of the same compound?
Its value is “potent inducers of autophagic flux”.

And the “LCB expression and phosphorylated S6 levels” value [2]?
Its value is “significantly induced LCB expression while simultaneously reducing phosphorylated S6 levels”.

What about the “apoptosis (cleaved-caspase 3/7)” value (ACHN cells [3]) of the same compound?
Its value is “little or no effect on apoptosis”.

What about the NADPH levels (ACHN cells [4]) of the same compound?
The NADPH levels was “increases NADPH levels”.

What about the ROS (ACHN cells [4]) of the same compound?
Its ROS is “mitigates ROS”.

What about the p-AMPK (ACHN cells [4]) of the same compound?
The p-AMPK was “activates p-AMPK”.

And the “number of lipid droplets” value (ACHN cells [5])?
The value was “increase in the number of lipid droplets”.

And the “size of lipid droplets” value (ACHN cells [5])?
The value was “increase in the size of lipid droplets”.

And the lipid droplets [6]?
The lipid droplets was “no increase in lipid droplets”.

Source: patent US20190142835A1, “INHIBITION OF AUTOPHAGY USING PHOSPHOLIPASE A2 INHIBITORS” (OREGON HEALTH & SCIENCE UNIVERSITY, priority 2017, published 2019)
